Experiment: gradient 5% acetonitrile 3 min, to 50% in 2 min, to 85% in 15 min, held 3 min, 100 µL/min
Settings: column: Zorbax Extend-C18 2.1 x 50 mm; eluents: water / acetonitrile, 0.1% formic acid
Procedure, shortened: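 Over 3 months, pure standards in mixtures of ~100 molecules were run by HPLC coupled to a quadrupole time-of-flight mass spectrometer in positive and negative ionization mode. The column was a Zorbax Extend-C18 (2.1 × 50 mm, 1.8 μm) at 100 μL/min, eluted with water and acetonitrile each holding 0.1% formic acid, with 40 μL dead and 900 μL dwell volumes. Retention time was determined from adduct peaks chosen by software and checked manually.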

RP-LC retention time	Structure (SMILES)
839 s	Cc1noc(-c2cc(=O)n(CC(=O)Nc3c(C)cccc3C)c3ccccc23)n1
784 s	O=C(Cc1ccsc1)N1CCCn2cc(-c3ccccc3F)nc21
552 s	c1cncc(-c2n[nH]c(C3CCCN(Cc4ccsc4)C3)n2)c1 (configuration not stated)
730 s	O=C(Nc1cccc(-c2ccc(N3CCOCC3)nn2)c1)Nc1ccccc1Cl
711 s	Cc1cc(NS(=O)(=O)c2cc3n(c2)CCCNC3=O)ccc1Cl
769 s	Cc1c(Cc2ccccc2)sc(NC(=O)C2CCCCC2C(=O)O)c1C(N)=O (configuration not stated)
786 s	COc1ccccc1CCNC(=O)CCc1csc(NC(=O)NC2CCCCC2)n1
765 s	Cc1noc2nc(CCC(=O)NCCCc3ccccc3)nc(N3CCCC3)c12
755 s	CC(C)(C)CC(=O)NC1CCN(c2ccc(F)cc2)C1=O (configuration not stated)
824 s	CCc1ccccc1S(=O)(=O)N1CCC(c2cc(N)on2)CC1
900 s	CCOC(=O)c1ccc(NC(=O)C2CCCN2S(=O)(=O)c2cc(C(=O)OC)n(C)c2)cc1 (configuration not stated)
880 s	Cc1[nH]c(C(=O)Nc2cccc(F)c2)c(C)c1S(=O)(=O)N1CCCC1
757 s	CC(C)N1CCn2cc(S(=O)(=O)Nc3ccc(F)cc3)cc2C1=O
645 s	Cc1cccc(-c2nnc(C)c(N3CCOCC3)n2)c1
783 s	CC(=O)N(Cc1nn(C)c2c1CN(S(=O)(=O)c1cccc(Cl)c1)CC2)c1ccccc1
634 s	CC1CCCN(CCCNC(=O)c2nnc(-c3ccc(S(=O)(=O)N4CCOCC4)cc3)o2)C1 (configuration not stated)
833 s	CCOc1ccccc1NC(=O)N1CCCC1c1cc(CC)no1 (configuration not stated)
853 s	O=C(NCC1CCN(C(=O)Oc2ccccc2)CC1)C(=O)Nc1ccc2c(c1)OCCO2
662 s	CCCn1c(=O)sc2cc(S(=O)(=O)N3CCC(C(=O)NCc4ccccn4)CC3)ccc21
745 s	COC[C@@H]1CN(S(=O)(=O)c2ccc(F)cc2)C[C@H]1c1ccccn1
712 s	CC(=O)N(C1CCOCC1)C1CCN(S(=O)(=O)c2ccccc2)CC1
730 s	O=C(c1cc(C2CC2)[nH]n1)N1CC(n2cc(COCc3ccccc3)nn2)C1
739 s	CCCN1CCN(c2ccc(-c3nc(-c4cccc(F)c4)no3)cn2)CC1
771 s	O=C(NCc1ccco1)C1CCCN(S(=O)(=O)c2c[nH]c(C(=O)N3CCCCCC3)c2)C1 (configuration not stated)

The remaining lines, values behind:

Structure (SMILES)	RP-LC retention time
CCOc1ccc(NS(=O)(=O)c2c(C)sc(C)c2-c2n[nH]c(C)c2C)cc1	1040 s
O=C(C1CCN(c2nc(-c3ccc(Cl)cc3)no2)CC1)N1CCN(c2ncccn2)CC1	968 s
COc1ccc(NS(=O)(=O)c2ccc(-c3c(C)noc3C)cc2)cc1	877 s
Cc1cc(Nc2ccc(NC(=O)Cn3cnc4ccccc43)cc2)nc(N2CCCC2)n1	548 s
O=c1ccn(-c2ccc(F)c(F)c2)nc1-c1nc(-c2ccccc2F)no1	863 s
Fc1ccc(Nc2nc(-c3ccccc3)cs2)cc1	1120 s
Cc1cc2nn(CC(=O)Nc3cccc(Cl)c3)c(=O)n2c(Nc2ccccc2C)n1	1100 s
CCOc1cc(=O)n2c(c1C(=O)Nc1cc(C)cc(C)c1)CCCC2	791 s
CCC1=NS(=O)(=O)c2cccnc2N1c1ccc(CC)cc1	931 s
O=C(Nc1ccc(OCc2nnc(-c3ccc(Cl)cc3)o2)cc1)c1cccnc1	816 s
CCn1c(=O)oc2cc(-c3noc(-c4ccc(OC)c(OC)c4)n3)ccc21	990 s
COc1ccc(-c2csc(NC(=O)c3cc(OC)c(OC)c(OC)c3)n2)cc1	1030 s
CN(C)c1ncncc1N1CCC(C(=O)N2CCN(c3ccc(Cl)cc3)CC2)CC1	692 s
COC(=O)c1cccc(C(=O)Nc2ccccc2C)n1	869 s
Cc1cc(C)c(S(=O)(=O)Nc2cccc(-c3cn4ccccc4n3)c2)c(C)c1	667 s
C[C@H](NC(=O)Cc1cc(F)cc(F)c1)C(=O)N[C@H](C(=O)OC(C)(C)C)c1ccccc1	944 s
CCOC(=O)c1c[nH]c2ccc(NC(C)=O)cc2c1=O	557 s
O=C(Nc1ccc(-c2cn3cccnc3n2)cc1)c1cc(Br)ccc1Cl	707 s
COc1ccc2[nH]cc(CCNC(=O)c3cc4n(n3)CCCN(Cc3ccc(F)cc3)C4=O)c2c1	852 s
CCN1C[C@H](C)n2c(c(O)c3c(=O)n(Cc4ccc(F)c(Cl)c4)nc(C(=O)NC)c32)C1=O	871 s
O=C(NC1CCN(c2cc(-c3cccs3)[nH]n2)C1)c1ccc(F)c(Cl)c1 (configuration not stated)	797 s
Cc1nc(C)c(C(=O)Nc2cccc(Cl)c2C)o1	731 s

Structure (SMILES)	RP-LC retention time
CC(C)n1cc(S(=O)(=O)Nc2ccc(F)cc2Cl)c2cccnc21	989 s
Cc1sc2cc(C(=O)NC3CC3)[nH]c2c1CN1CCCCC1	596 s
Cc1cc(C)n(CCC(=O)N2CCCn3ccnc3C2C2CCCC2)n1 (configuration not stated)	604 s
O=C(c1ccc[nH]1)N1CCC2(CC1)NC(=O)N(Cc1ccc(Cl)cc1)C2=O	761 s
Oc1cccc2ccc(N3CCOCC3)nc12	547 s
Cc1ccc(S(=O)(=O)NCCCC(=O)NCc2ccccc2)cc1	732 s
Cc1ccc(NC(=O)COc2cccc3c(=O)n(C)ccc23)cc1	795 s
Fc1ccc(-c2ccc(CNC3CN4CCC3CC4)o2)cc1 (configuration not stated)	558 s
O=C(c1nnc(-c2ccc(S(=O)(=O)N3CCCCC3)cc2)o1)N1CCC2(CC1)OCCO2	884 s
O=C(c1ccc(Cl)s1)N1CCc2nc(-c3ccc(Cl)cc3)ncc2C1	1210 s
COc1ccc(NC(=O)NC(C)C(=O)N2CCc3ccccc32)cc1OC (configuration not stated)	742 s
O=C(Nc1ccc2cn[nH]c2c1)c1ccc(F)cc1F	675 s
Cc1sc(C)c(S(=O)(=O)NCc2cccs2)c1-c1cc(C(F)(F)F)on1	1100 s
CC(C)(C)c1noc(-c2ccnc(-n3cnc(C(=O)N4CCCCCC4)c3)c2)n1	998 s
COc1ccc(OC)c(CCNc2nc(-c3ccc(OC)c(OC)c3)no2)c1	918 s
O=C(NCC1(c2ccc(F)cc2)CC1)c1ccsc1	821 s
CC(=O)c1sc2nc(SC/C=C/c3ccccc3)[nH]c(=O)c2c1C	977 s
CCn1c(C(=O)N2CCN(c3ccccc3F)CC2)cc2c(-c3cccs3)nn(-c3ccccc3)c21	1270 s
COc1cc(C(=O)NCCc2c[nH]c3ccc(F)cc23)cc(OC)c1OC	781 s
CCC(C)n1ncn(-c2ccc(N3CCN(c4ccc(OC[C@@H]5CO[C@@](Cn6cncn6)(c6ccc(Cl)cc6Cl)O5)cc4)CC3)cc2)c1=O (some centres not stated)	1060 s
CCCCn1cnc2c(-c3ccccc3)cn(CC(=O)Nc3ccccc3)c2c1=O	1030 s

From the METLIN SMRT retention time set (Domingo-Almenara et al. 2019)
